{
  "source": "paper PMC11868595",
  "about": "“Safety, pharmacokinetics and efficacy of HA121-28 in patients with advanced solid tumors and RET fusion-positive non-small-cell lung cancer: a multicenter, open-label, single-arm phase 1/2 trial” (Signal Transduction and Targeted Therapy, 2025)",
  "key": {"SRC": {"target": "SRC (Homo sapiens, UniProt P12931)", "sequence (P12931 whole entry)": "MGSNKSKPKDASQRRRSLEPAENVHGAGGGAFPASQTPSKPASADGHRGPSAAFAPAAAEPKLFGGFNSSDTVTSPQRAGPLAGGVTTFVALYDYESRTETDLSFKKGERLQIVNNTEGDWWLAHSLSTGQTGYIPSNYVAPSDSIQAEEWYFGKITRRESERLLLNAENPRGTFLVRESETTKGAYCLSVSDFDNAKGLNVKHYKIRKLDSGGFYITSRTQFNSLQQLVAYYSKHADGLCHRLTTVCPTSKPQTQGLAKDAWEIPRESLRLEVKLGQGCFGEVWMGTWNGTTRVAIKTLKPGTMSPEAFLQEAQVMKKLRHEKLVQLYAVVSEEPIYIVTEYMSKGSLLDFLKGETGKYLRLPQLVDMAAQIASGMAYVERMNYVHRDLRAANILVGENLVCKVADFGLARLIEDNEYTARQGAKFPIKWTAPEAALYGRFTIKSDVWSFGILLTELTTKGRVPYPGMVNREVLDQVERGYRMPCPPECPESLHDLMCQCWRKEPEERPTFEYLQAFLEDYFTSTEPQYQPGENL", "assay": "Tyrosine kinase inhibition", "assay_type": "biochemical"}, "[1]": {"assay": "Excretion after gastric lavage", "assay_type": "in vivo, rats"}},
  "data": [
    {"compound": "COc1cc2c(Nc3ccc(Br)cc3F)ncnc2cc1OCCCCN(C)C.Cl.Cl", "note": "[HA121-28, N-(4-bromo-2-fluorophenyl)-7-(4-(dimethylamino)butoxy)-6-methoxy quinazolin-4-amine dihydrochloride]", "values": [
      {"measurement": "IC50", "setting": "SRC", "value": 0.0658, "unit": "µM"},
      {"measurement": "excretion in original form", "setting": "[1]; bile", "value": 3.91, "unit": "%"},
      {"measurement": "excretion in original form", "setting": "[1]; feces", "value": 27.5, "unit": "%"},
      {"measurement": "excretion in original form", "setting": "[1]; urine", "value": 2.18, "unit": "%"},
      {"measurement": "total excretion rate", "setting": "[1]; urine and feces", "value": 29.7, "unit": "%"}
    ]}
  ]
}
